# “And” between values parts separate entries of the source, which are not always exact repeats. Equal entries are not always repeated. Where two headings read alike, the source gives them in different places. Marks after values point to notes of the source that are not given here.
# Tests used:
# Type in all cases: cell-based
# SGLT1 = biological target: T1, SGLT1 (Homo sapiens, UniProt P13866); test: Change in SGLT1 inhibition according to drug pretreatment time (CHO-SGLT1); conditions: for IC50: CHO-SGLT1; for Change in SGLT1 inhibition as exposure time increased: pretreatment 0, 1, 2 h, one-way ANOVA
# T1 construct: expressed in transfected cells
# T1 sequence (P13866 1-664): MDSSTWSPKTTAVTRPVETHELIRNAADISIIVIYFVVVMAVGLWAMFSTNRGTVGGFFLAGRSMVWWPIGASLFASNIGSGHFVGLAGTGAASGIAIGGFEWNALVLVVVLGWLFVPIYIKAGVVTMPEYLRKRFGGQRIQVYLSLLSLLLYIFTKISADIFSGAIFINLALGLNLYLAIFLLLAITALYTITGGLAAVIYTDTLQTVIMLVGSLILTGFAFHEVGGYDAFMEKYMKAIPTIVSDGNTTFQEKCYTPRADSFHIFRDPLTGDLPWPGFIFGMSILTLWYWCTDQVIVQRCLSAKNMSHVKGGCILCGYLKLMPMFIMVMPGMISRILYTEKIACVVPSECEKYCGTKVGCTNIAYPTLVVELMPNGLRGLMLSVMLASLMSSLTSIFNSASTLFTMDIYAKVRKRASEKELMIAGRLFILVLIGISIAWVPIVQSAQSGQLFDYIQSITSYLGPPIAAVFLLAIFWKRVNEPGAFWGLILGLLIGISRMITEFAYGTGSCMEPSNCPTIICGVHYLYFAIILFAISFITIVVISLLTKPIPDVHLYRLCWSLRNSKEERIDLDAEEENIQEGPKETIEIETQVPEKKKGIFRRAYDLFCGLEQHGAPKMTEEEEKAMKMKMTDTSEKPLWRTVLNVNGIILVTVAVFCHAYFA
# Source text: All data values are expressed as the mean±SD of […].
# SGLT2 [1] = biological target: T2, SGLT2 (Homo sapiens, UniProt P31639); test: SGLT2 inhibition with varied substrate AMG concentration (Dixon / L-B plot); conditions: for Inhibition mechanism, SGLT2: CHO-SGLT2, varied AMG concentration; for Ki: from slope of L-B plot, CHO-SGLT2
# T2 construct: expressed in transfected cells
# T2 sequence (P31639 1-672): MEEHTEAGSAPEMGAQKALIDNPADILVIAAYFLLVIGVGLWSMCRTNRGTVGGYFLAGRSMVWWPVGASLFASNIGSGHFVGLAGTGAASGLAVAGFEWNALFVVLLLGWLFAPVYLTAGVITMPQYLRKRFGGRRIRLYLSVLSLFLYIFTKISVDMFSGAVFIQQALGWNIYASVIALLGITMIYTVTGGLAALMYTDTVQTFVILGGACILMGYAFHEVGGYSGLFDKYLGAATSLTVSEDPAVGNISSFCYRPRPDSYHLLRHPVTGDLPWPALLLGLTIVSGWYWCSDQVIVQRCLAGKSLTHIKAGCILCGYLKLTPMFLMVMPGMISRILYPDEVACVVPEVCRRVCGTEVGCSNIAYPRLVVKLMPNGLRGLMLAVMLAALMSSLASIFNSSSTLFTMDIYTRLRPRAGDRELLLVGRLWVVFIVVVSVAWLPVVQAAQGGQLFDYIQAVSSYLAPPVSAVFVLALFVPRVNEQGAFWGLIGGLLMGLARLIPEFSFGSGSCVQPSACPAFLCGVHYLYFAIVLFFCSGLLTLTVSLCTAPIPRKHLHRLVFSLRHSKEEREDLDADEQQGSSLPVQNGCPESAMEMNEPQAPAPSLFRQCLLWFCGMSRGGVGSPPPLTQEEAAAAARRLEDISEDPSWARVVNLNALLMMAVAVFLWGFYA
# Method: From these, the inhibition mechanism was confirmed, and the inhibition constant was calculated.
# SGLT2 [2] = biological target: T2, SGLT2; test: Whole-cell patch clamp glucose current, binding and dissociation, CHO-SGLT2; conditions: for Dissociation degree T1/2, off (s), SGLT2: washout
# Method: When SGLT1- and SGLT2-overexpressing cell lines (CHO-SGLT1, CHO-SGLT2 stable cells) were cultured to reach 60% confluency, the cells were treated with 0.05% trypsin to detach the cells from the bottom of the plate, suspended in 200 μL of culture medium, and used at room temperature.
# Glucose reabsorption is induced by the Na^+ electrochemical potential gradient in the kidneys via SGLT2, and glucose diffuses across the cell membrane into the blood via glucose transporter 2 (GLUT-2), which enables facilitated glucose transport. While one Na^+ ion is absorbed per glucose molecule through SGLT2, two Nations are absorbed per glucose molecule through SGLT1. Therefore, by varying the composition of the buffer, only the glucose current was recorded, excluding the Na^+ current.
# The experiment was conducted as described below.
# 1) Using a Narishige puller, a glass micropipette was made in two stages of 62.7° C. and 57° C., filled with an internal solution (145 mM CsCl, 5 mM NaCl, 10 mM HEPES, 11 mM ethylene glycol-bis(2-aminoethylether)-N,N,N′,N′-tetraacetic acid (EGTA), pH 7.2), and then inserted into the Ag/AgCl2 electrode of the patch clamp head-stage.
# 2) SGLT1 or SGLT2 cells were seeded on a chamber which was coated with poly-L-lysine in advance, and then an external solution (150 mM NaCl, 10 mM HEPES, 1 mM CaCl2), 1 mM MgCl2, pH 7.4) was flowed to ensure that the cells were sufficiently submerged. A temperature control device was used to maintain the temperature of the chamber at 36.5±0.5° C.
# 3) Using a micromanipulator, the glass micropipette was attached to the cell membrane to create a giga-ohm seal, which was then ruptured to detach the cell membrane (whole-cell mode, 3 to 5 MΩ).
# 4) The cells were fixed at −60 mV (holding potential), and the current [I^total current (Na^+/Glucose current (pA))] was measured in a gap-free data acquisition mode.
# 5) The external solution was continuously flowed into the chamber containing the cells, and the current (I^total) was recorded for about 30 seconds to 1 minute (stabilization), and then the external solution with added glucose (Na^+/Glucose external) (150 mM NaCl, 10 mM HEPES, 1 mM CaCl2), 1 mM MgCl2, 100 mM glucose, pH 7.4) was flowed to record the glucose current (I^glucose). Then, the cells were exposed to the external solution with added glucose containing one concentration of the compound for two minutes, and the glucose current suppressed by the compound was recorded.
# 7) After confirming the recovery of the current, the solution was replaced with a sodium-free external solution (Na^+-free external) (150 mM Choline-Cl, 1 mM CaCl2), 1 mM MgCl2, pH 7.4) and the Na^+ current was recorded. After the current was stabilized, the solution was replaced with the external solution to record the current in the resting state when the cells were not stimulated, thereby securing the reliability of the experimental system.
# For statistical analysis of data, pCLAMP10.4 (Molecular Devices, LLC, San Jose, CA, USA) or Origin6.0 (OriginLab, Northampton, MA, USA) was used.
# The test results were expressed as the mean±SD of the mean. Statistical significance was verified using the nonparametric Kruskal-Wallis test using Statistical Package for the Social Sciences (SPSS) for Windows (version 26.0, IBM Corp., Armonk, NY, USA). The significance level was set at p<0.05.
# [3] = IC50 according to pretreatment time (nM), SGLT1, 1 h, 1 h pretreatment in sodium-free buffer
# [4] = IC50 according to pretreatment time (nM), SGLT1, 2 h, 2 h pretreatment in sodium-free buffer
# [5] = no pretreatment, read-out: IC50 according to pretreatment time (nM), SGLT1, 0 h
IC50 (SGLT1; [3]) [nM],IC50 (SGLT1; [4]) [nM],IC50 (SGLT1; [5]) [nM],"Inhibition mechanism, SGLT2 (SGLT2 [1])",Ki (SGLT2 [1]) [nM],"Dissociation from SGLT2, times slower than dapagliflozin (SGLT2 [2]; ratio of T1/2,off)","Binding affinity T1/2, on (s), SGLT2 (SGLT2 [2]; treatment concentration 100 μM) [s]","Dissociation degree T1/2, off (s), SGLT2 (SGLT2 [2]; treatment concentration 100 μM)","Dissociation degree T1/2, off (s), SGLT2 (SGLT2 [2]; treatment concentration 100 μM, listed as enavogliflozin) [s]","Dissociation rate from SGLT2, times slower than enavogliflozin (SGLT2 [2]; ratio of T1/2,off) [times]","Binding affinity T1/2, on (s), SGLT2 (SGLT2 [2]; treatment concentration 200 μM)","Dissociation degree T1/2, off (s), SGLT2 (SGLT2 [2]; treatment concentration 200 μM)",Compound,Change in SGLT1 inhibition as exposure time increased (SGLT1)
889 ± 238,829 ± 194,867 ± 163,Competitive inhibition,0.411,about 2.8 times,29.5 ± 5.5,"745.5^+, # s",745.5,–,–,–,"OC[C@H]1O[C@@H](c2cc(Cc3ccc(C4CC4)cc3)c(Cl)c3c2CCO3)[C@H](O)[C@@H](O)[C@@H]1O [Enavogliflozin, (2S,3R,4R,5S,6R)-2-(7-chloro-6 (4-cyclopropylbenzyl)-2,3-dihydrobenzofuran-4-yl)-6-(hydroxymethyl)tetrahydro-2H-pyran-3,4,5-triol]",did not show any significant change or increase in inhibition
103 ± 22.4,76.6 ± 1.2,29.2 ± 13.5,Competitive inhibition,7.49,–,–,–,–,2,"52.5 ± 3.8*^, + s",369.9 s and 369.9 ± 56.5 ^ s,"OC[C@H]1O[C@@H](c2cc(Cc3ccc(C4CC4)cc3)c(Cl)c3c2CC(O)O3)[C@H](O)[C@@H](O)[C@@H]1O (stereo partly drawn) [M1, (2S,3R,4R,5S,6R)-2-(7-chloro-6-(4-cyclopropylbenzyl)-2-hydroxy-2,3-dihydrobenzofuran-4-yl)-6-(hydroxymethyl)tetrahydro-2H-pyran-3,4,5-triol]",significantly increased
1020 ± 225,1180 ± 177,1080 ± 71,Competitive inhibition,6.18,–,–,–,–,1.38,"51.8 ± 10.5*^, + s","540.4 s and 540.4 ± 217.0^+, # s","OC[C@H]1O[C@@H](c2cc(Cc3ccc(C4(O)CC4)cc3)c(Cl)c3c2CCO3)[C@H](O)[C@@H](O)[C@@H]1O [M2, (2S,3R,4R,5S,6R)-2-(7-chloro-6-(4-(1-hydroxycyclopropyl)benzyl)-2,3-dihydrobenzofuran-4-yl)-6-(hydroxymethyl)tetrahydro-2H-pyran-3,4,5-triol]",did not show any significant change or increase in inhibition
